In patent US9696323B2, “Biomarkers for chagas disease related cardiomyopathy” (THE BOARD OF REGENTS OF THE UNIVERSITY OF TEXAS SYSTEM, priority 2013, dated 2017):

Test system: T. cruzi
Test: 2D-GE plasma proteome profile (differential protein expression) of T. cruzi-infected rats treated with PBN and/or BZ
Type: in vivo, rat
Settings: plasma
From the text: Certain embodiments include biomarkers identified in a previous study. Parasite persistence and oxidative damage in the heart are known to be of pathological significance during Chagas disease (Zacks et al., (2005) An Acad Bras Cienc, 77, 695-715; Gupta et al., (2009) Interdiscip Perspect Infect Dis, 2009, 190354). […] In the previous study the inventors identified 92 proteins that were differentially expressed or oxidized in chagasic plasma. Functional analysis allocated a majority of these proteins to inflammation/immunity and lipid metabolism categories, and to molecular pathways associated with cardiovascular dysfunction, e.g., myocardial infarction, hypertrophy, and fibrosis, and pulmonary embolism and hypertension. Some proteins in chagasic rats treated with PBN and/or BZ were allocated to curative pathways (immune regulation and cardiac remodeling). The 2D-GE results were validated by Western blotting. […] Increased plasma levels of GSN, MYL2, and VIM were directly correlated with the severity of cardiac disease in human chagasic patients. […] These findings have utility in diagnosing disease severity and designing suitable therapy for management of human chagasic patients.
Ingenuity Pathway Analysis (IPA) is a highly curated and comprehensive software used for the integration of proteins into networks and pathways with biological meaning (Thomas and Bonchev, (2010). Hum Genomics, 4, 353-360). Network analysis of the plasma proteome profile of chagasic rats identified four major sub-networks linked to host response to T. cruzi infection and disease development (Table V). The maximal numbers of the differentially expressed plasma proteins (19 proteins) in chagasic rats were associated with antigen presentation and inflammatory response category (Table V) and indicators of persistent inflammation, known to be of pathological significance in Chagas disease (Dhiman et al., (2009) Clinical and Vaccine Immunology, 16, 660-666; Tanowitz et al., (2009) Prog Cardiovasc Dis, 51, 524-539; Junqueira et al., (2010) Expert Rev Mol Med, 12, e29). Following functional analysis of the inflammation-associated proteins, 12 proteins (APOA1, APOE, C3, CFB, CFH, FGB, GSN, KRT10, PLG, SCG2, SERPINA1, and SERPINC1) were identified as being involved in immune cell trafficking and cell movement of leukocytes, granulocytes, phagocytes, neutrophils, and dendritic and antigen presenting cells. Some of the differentially expressed proteins in inflammation category were associated with activation (APOE, C3, CFH, GC and PLG), chemotaxis (C3, SCG2, SERPINA1, SERPINC1), and infiltration of leukocytes (APOA1, APOE, C3, PLG, KRT10) and neutrophils (C3, CFB, CFH, PLG). Up regulation of APOE, APOA1, APOH, GC and PLG in chagasic plasma was indicative of activation, binding and accumulation of macrophages in the disease state. Of the 19 differentially expressed inflammation-associated proteins, 11 proteins (APOE, C3, CFB, CFH, GSN, KRT10, SCG2, SERPINA1, SERPINC1, GC, and PLG) were carbonylated in chagasic plasma. […] Other proteins (APOE, C3, KRT3, and SCG2) were exposed to oxidation due to T. cruzi-induced, acute oxidative stress, but were normalized in expression and oxidation during the chronic phase.
Seventeen of the differentially expressed proteins in chagasic plasma, i.e., AFM, C4BPA, CACNA1D, DLGAP2, GC, KNG1, MUG1, MYLPF, MY05A, MY05B, PRPH, PZP, RAI14, and SCG2, were allotted to the lipid metabolism/molecular transport/small molecule biochemistry category (Table V) and functionally linked by IPA network analysis to lipid, fatty acid, and carbohydrate metabolism. A majority of the proteins in this category, i.e., ALB, APOA1, APOA4, APOE, APOH, C3, GC, GNAQ, MY05A, PLG, SCD2, SERPINA1, SERPINC1 and VIM, were linked to the synthesis, metabolism, transport, and modification of lipids and fatty acids, and to uptake and release or efflux of lipids, eicosanoids, and cholesterol. […]

[1] = RCP/RCB/RCPB groups (chronic infection)

SMILES: CC(C)(C)/[N+]([O-])=C/c1ccccc1 [PBN]
- Spot# 979 Average Normalized Density × 100,000 (RAP group (acute infection)): 59.46
- Spot# 992 Average Normalized Density × 100,000 (RAP group (acute infection)): 34.51
- Spot# 12, 180 Average Normalized Density × 100,000 [1]: 7.22
- Spot# 34 Average Normalized Density × 100,000 [1]: 0.45
- Spot# 37, 593 Average Normalized Density × 100,000 [1]: 6.48
- Spot# 49, 673 Average Normalized Density × 100,000 [1]: 13.39
- Spot# 52, 54, 302 Average Normalized Density × 100,000 [1]: 14.45
- Spot# 53, 225 Average Normalized Density × 100,000 [1]: 15.12
- Spot# 72 Average Normalized Density × 100,000 [1]: 16.43
- Spot# 73, 705, 787 Average Normalized Density × 100,000 [1]: 38.67
- Spot# 77 Average Normalized Density × 100,000 [1]: 8.675
- Spot# 88 Average Normalized Density × 100,000 [1]: 40.49
- Spot# 94 Average Normalized Density × 100,000 [1]: 2.55
- Spot# 115, 123 Average Normalized Density × 100,000 [1]: 10.96
- Spot# 149 Average Normalized Density × 100,000 [1]: 4.39
- Spot# 153 Average Normalized Density × 100,000 [1]: 10.34
- Spot# 177 Average Normalized Density × 100,000 [1]: 1.60
- Spot# 181 Average Normalized Density × 100,000 [1]: 1.90
- Spot# 184, 257, 328 Average Normalized Density × 100,000 [1]: 5.85
- Spot# 207, 555 Average Normalized Density × 100,000 [1]: 9.12
- Spot# 215 Average Normalized Density × 100,000 [1]: 1.97
- Spot# 266 Average Normalized Density × 100,000 [1]: 0.54
- Spot# 299 Average Normalized Density × 100,000 [1]: 1.17
- Spot# 315 Average Normalized Density × 100,000 [1]: 8.23
- Spot# 334 Average Normalized Density × 100,000 [1]: 0.71
- Spot# 341 Average Normalized Density × 100,000 [1]: 1.10
- Spot# 355, 359 Average Normalized Density × 100,000 [1]: 2.20
- Spot# 382, 385, 378, 572, 578, 595 Average Normalized Density × 100,000 [1]: 3.29
- Spot# 389 Average Normalized Density × 100,000 [1]: 4.32
- Spot# 430 Average Normalized Density × 100,000 [1]: 8.21
- Spot# 434, 678 Average Normalized Density × 100,000 [1]: 24.63
- Spot# 439 Average Normalized Density × 100,000 [1]: 14.99
- Spot# 452 Average Normalized Density × 100,000 [1]: 10.01
- Spot# 464 Average Normalized Density × 100,000 [1]: 6.65
- Spot# 479 Average Normalized Density × 100,000 [1]: 32.56
- Spot# 493 Average Normalized Density × 100,000 [1]: 13.46
- Spot# 515 Average Normalized Density × 100,000 [1]: 7.78
- Spot# 524 Average Normalized Density × 100,000 [1]: 21.96
- Spot# 551, 587, 908 Average Normalized Density × 100,000 [1]: 54.1
- Spot# 559 Average Normalized Density × 100,000 [1]: 27.58
- Spot# 571 Average Normalized Density × 100,000 [1]: 38.63
- Spot# 576, 620 Average Normalized Density × 100,000 [1]: 16.66
- Spot# 586, 614 Average Normalized Density × 100,000 [1]: 38.00
- Spot# 592 Average Normalized Density × 100,000 [1]: 31.55
- Spot# 604 Average Normalized Density × 100,000 [1]: 23.66
- Spot# 606 Average Normalized Density × 100,000 [1]: 5.58
- Spot# 627 Average Normalized Density × 100,000 [1]: 54.85
- Spot# 638 Average Normalized Density × 100,000 [1]: 5.92
- Spot# 649 Average Normalized Density × 100,000 [1]: 37.11
- Spot# 651 Average Normalized Density × 100,000 [1]: 57.85
- Spot# 655 Average Normalized Density × 100,000 [1]: 149.20
- Spot# 672 Average Normalized Density × 100,000 [1]: 17.65
- Spot# 676 Average Normalized Density × 100,000 [1]: 42.59
- Spot# 691 Average Normalized Density × 100,000 [1]: 16.29
- Spot# 715 Average Normalized Density × 100,000 [1]: 32.20
- Spot# 724 Average Normalized Density × 100,000 [1]: 2.23
- Spot# 728 Average Normalized Density × 100,000 [1]: 1.13
- Spot# 733 Average Normalized Density × 100,000 [1]: 2.44
- Spot# 740 Average Normalized Density × 100,000 [1]: 7.33
- Spot# 745 Average Normalized Density × 100,000 [1]: 3.21
- Spot# 749 Average Normalized Density × 100,000 [1]: 1.70
- Spot# 766 Average Normalized Density × 100,000 [1]: 6.32
- Spot# 779, 909 Average Normalized Density × 100,000 [1]: 6.88
- Spot# 796 Average Normalized Density × 100,000 [1]: 8.33
- Spot# 814 Average Normalized Density × 100,000 [1]: 1.56
- Spot# 817 Average Normalized Density × 100,000 [1]: 29.59
- Spot# 820, 1081 Average Normalized Density × 100,000 [1]: 2.20
- Spot# 827 Average Normalized Density × 100,000 [1]: 17.80
- Spot# 832 Average Normalized Density × 100,000 [1]: 7.55
- Spot# 860 Average Normalized Density × 100,000 [1]: 5.79
- Spot# 867 Average Normalized Density × 100,000 [1]: 3.00
- Spot# 881 Average Normalized Density × 100,000 [1]: 6.68
- Spot# 897 Average Normalized Density × 100,000 [1]: 31.94
- Spot# 900 Average Normalized Density × 100,000 [1]: 44.00
- Spot# 906 Average Normalized Density × 100,000 [1]: 87.74
- Spot# 966 Average Normalized Density × 100,000 [1]: 59.29
- Spot# 979 Average Normalized Density × 100,000 [1]: 41.38
- Spot# 992 Average Normalized Density × 100,000 [1]: 57.94
